Here are results for five compounds from patent publication EP0039085A1, “Process for increasing the solubility of aromatic systems” (Langhals, Heinz, Dr., priority 1980, dated 1981).

A short description of data set [1]: Absolute fluorescence quantum yield. It counts as physicochemical.
Data set [2] in a line: Solubility in organic solvents: effect of tert-butyl substitution. To be noted: for Löslichkeitssteigerung um einen Faktor: relative to unsubstituted Rubicen (I). It counts as physicochemical. The source says: Der Einfluß der Substitution mit tert.-Butylgruppen wurde an folgenden Systemen untersucht.

Consider `CC(C)(C)c1ccccc1N1C(=O)c2ccc3c4ccc5c6c(ccc(c7ccc(c2c37)C1=O)c64)C(=O)N(c1ccccc1C(C)(C)C)C5=O` [Beispiel 3, N,N'-Di-(2-tert.-butyl)-perylen-3,4,9,10-tetracarbonsäure-diimid], for which the “Fluoreszenzquantenausbeute (absolut) η” value in data set [1] (Chloroform) was 1,0; in data set [1] (Dimethylformamid (DMF)) it was 0,94.

In the case of `CC(C)(C)c1ccc(N2C(=O)c3ccc4c5ccc6c7c(ccc(c8ccc(c3c48)C2=O)c75)C(=O)N(c2ccc(C(C)(C)C)cc2)C6=O)cc1` [Beispiel 4, N,N'-Di-(4-tert.-butylphenyl)-perylen-3,4,9,10-tetra-carbonsäurediimid], the “Fluoreszenzquantenausbeute (absolut) η” value in data set [1] (Dimethylformamid (DMF)) was 0,88. With Tetra-tert.-butylrubicen, the “erhöhte die Löslichkeit um einen Faktor” value in data set [2] (solvent not restated (preceding sentence: Äthanol und n-Hexan bei Zimmertemperatur), relative to Rubicen) was “ca. 10”. Take Di-tert.-butylrubicen: the “Löslichkeitssteigerung um einen Faktor” value in data set [2] (in n-Hexan bei Zimmertemperatur) and in data set [2] (in Äthanol bei Zimmertemperatur) was “ca. 100” each time. On to `O=C1c2ccc3c4ccc5c6c(ccc(c7ccc(c2c37)C(=O)N1c1ccccc1)c64)C(=O)N(c1ccccc1)C5=O` [III, reference compound], for which, in data set [2] (in organischen Lösungsmitteln), the Löslichkeit result is given as “sehr geringe”.
